Results: patent EP0093376B2, “1-Sulfo-2-azetidinone derivatives, their production and use” (Takeda Chemical Industries, Ltd., priority 1982, dated 1983)
Values after ≈ are worked out from the molar mass of the structure shown.

What was measured:
Format in all cases: cell-based
[1] = system: Klebsiella pneumoniae TN 1711; assay: MIC by agar dilution method (Experimental Example); details: TN1711; test organism (2) Klebsiella pneumoniae TN 1711; Trypticase soy agar; inoculum about 10^8 CFU/ml; overnight culture at 37°C; complete growth inhibition
Experimental: (§1) The MIC of each test compound was determined by the agar dilution method. Thus, a stock aqueous solution of each test compound is serially diluted and the resultant dilution series are put in petri dishes. Then, 9.0 ml of Trypticase soy agar per dish is added and mixed. Each of the agar plates is smeared with a suspension of the test organism (about 10^8 CFU/ml). After overnight culture at 37°C, the minimum concentration of the test compound that caused a complete growth inhibition of the organism is taken as the MIC (minimal inhibitory concentration) value.
(§2) • (1) Enterobacter cloacae IFO 12937 • (2) Klebsiella pneumoniae TN 1711

[2] = system: Enterobacter cloacae IFO 12937; assay: MIC by agar dilution method (Experimental Example); details: IFO12937; test organism (1) Enterobacter cloacae IFO 12937; Trypticase soy agar; inoculum about 10^8 CFU/ml; overnight culture at 37°C; complete growth inhibition
Experimental: as §1, §2

[3] = system: Pseudomonas aeruginosa GN 3407; assay: MIC by agar dilution method (Test Example); details: GN3407; test organism (3) Pseudomonas aeruginosa GN 3407; Trypticase soy agar; inoculum about 10^6 CFU/ml; overnight at 37°C
Experimental: (§3) The MIC values for the test compounds were determined by the agar dilution method. Thus, 1.0 ml of each serially diluted aqueous solution of each test compound was poured into a petri dish. Then, 9.0 ml of Trypticase soy agar was added and mixed with the aqueous solution. A suspension of the test organism (about 10^6 CFU/ml) was smeared onto the mixed agar plate and incubated overnight at 37°C.
(§4) • (1) Enterobacter cloacae IFO 12937 • (2) Klebsiella pneumoniae TN 1711 • (3) Pseudomonas aeruginosa GN 3407

[4] = system: Klebsiella pneumoniae TN 1711; assay: MIC by agar dilution method (Test Example); details: TN1711; test organism (2) Klebsiella pneumoniae TN 1711; Trypticase soy agar; inoculum about 10^6 CFU/ml; overnight at 37°C
Experimental: as §3, §4

[5] = system: Enterobacter cloacae IFO 12937; assay: MIC by agar dilution method (Test Example); details: IFO12937; test organism (1) Enterobacter cloacae IFO 12937; Trypticase soy agar; inoculum about 10^6 CFU/ml; overnight at 37°C
Experimental: as §3, §4

MIC [1]	MIC [2]	MIC [3]	MIC [4]	MIC [5]	Compound
3.13 mg/L (≈ 6.34 µM)	12.5 mg/L (≈ 25.3 µM)	–	–	–	CC(C)(O/N=C(\C(=O)N[C@@H]1C(=O)N(S(=O)(=O)O)[C@@H]1CNC(N)=O)c1csc(N)n1)C(=O)O (relative stereo) [cis-3-[2-(2-Amino-4-thiazolyl)-2-(Z)-(1-carboxy-1-methylethoxyimino)acetamido]-4-ureidomethyl-2-azetidinone-1-sulfonic acid]
–	6.25 mg/L	–	–	–	CO/N=C(\C(=O)N[C@@H]1C(=O)N(S(=O)(=O)O)[C@H]1CC(C)=O)c1csc(N)n1 [Sodium [3S, 4S]-trans-3-[2-(2-aminothiazol-4-yl]-2-(Z)-methoxyimino]acetamido]-4-(2-oxopropyl)-2-azetidinone-1-sulfonate]
0.78 mg/L (≈ 1.57 µM)	3.13 mg/L (≈ 6.29 µM)	–	–	–	C[S+]([O-])C[C@@H]1[C@H](NC(=O)/C(=N\OC(C)(C)C(=O)O)c2csc(N)n2)C(=O)N1S(=O)(=O)O (relative stereo) [cis-3-[2-(2-Amino-4-thiazolyl)-2-(Z)-(1-carboxy-1-methylethoxyimino]acetamido]-4-methylsulfinyl-methyl-2-azetidinone-1-sulfonic acid]
3.13 mg/L	12.5 mg/L	–	–	–	CC(=O)CC1C(NC(=O)C(=NOC(C)(C)C(=O)O)c2csc(N)n2)C(=O)N1S(=O)(=O)O (centres unmarked) [Sodium [3S,4S]-3-[(2-(2-aminothiazol-4-yl)-2-(Z)-(1-carboxy-1-methylethoxyimino]acetamido]-4-(2-oxopropyl)-2-azetidinone-1-sulfonate]
–	–	1.56 mg/L (≈ 3.34 µM)	0.05 mg/L (≈ 0.107 µM)	0.05 mg/L (≈ 0.107 µM)	NC(=O)OC[C@@H]1[C@H](NC(=O)/C(=N\OCC(=O)O)c2csc(N)n2)C(=O)N1S(=O)(=O)O [Example 2']
3.13 mg/L (≈ 6.17 µM)	6.25 mg/L (≈ 12.3 µM)	–	–	–	COC(=O)CC[C@@H]1[C@H](NC(=O)/C(=N\OC(C)(C)C(=O)O)c2csc(N)n2)C(=O)N1S(=O)(=O)O (relative stereo) [cis-3-[2-(2-Amino-4-thiazolyl)-2-(Z)-(1-carboxy-1-methylethoxyamino)acetamido]-4-(2-methoxy-carbonylethyl)-2-azetidinone-1-sulfonic acid]
0.78 mg/L	12.5 mg/L	–	–	–	CCC[C@H]1[C@H](NC(=O)/C(=N\OC(C)(C)C(=O)O)c2csc(N)n2)C(=O)N1S(=O)(=O)O [Sodium [3S,4S]-3-[(2-(2-aminothiazol-4-yl)-2-(Z)-(1-carboxy-1-methylethoxyimino)acetamido]-4-propyl-2-azetidinone-1-sulfonate]
1.56 mg/L (≈ 3.04 µM)	12.5 mg/L (≈ 24.3 µM)	–	–	–	CC(C)(O/N=C(\C(=O)N[C@@H]1C(=O)N(S(=O)(=O)O)[C@@H]1CS(C)(=O)=O)c1csc(N)n1)C(=O)O (relative stereo) [cis-3-[2-(2-Amino-4-thiazolyl)-2-(Z)-(1-carboxy-1-methylethoxyimino)acetamido]-4-methylsulfonyl-methyl-2-azetidinone-1-sulfonic acid]
0.39 mg/L	1.56 mg/L	–	–	–	CO/N=C(\C(=O)N[C@@H]1C(=O)N(S(=O)(=O)O)[C@@H]1C(N)=O)c1csc(N)n1 (relative stereo) [Sodium cis-3-[2-(2-amino-4-thiazolyl)-2-(Z)-methoxyiminoacetamido]-4-carbamoyl-2-azetidinone-1-sulfonate]
0.1 mg/L (≈ 0.229 µM)	3.13 mg/L (≈ 7.16 µM)	–	–	–	COC[C@@H]1[C@H](NC(=O)/C(=N\OCC(=O)O)c2csc(N)n2)C(=O)N1S(=O)(=O)O (relative stereo) [cis-3-[2-(2-Amino-4-thiazolyl)-2-(Z)-carboxy-methoxyiminoacetamido]-4-methoxymethyl-2-azetidinone-1-sulfonic acid]
12.5 mg/L	3.13 mg/L	–	–	–	CC(C)(O/N=C(\C(=O)N[C@@H]1C(=O)N(S(=O)(=O)[O-])[C@@H]1C[n+]1ccccc1)c1csc(N)n1)C(=O)O (relative stereo) [Monosodium cis-3-[2-(2-amino-4-thiazolyl)-2-(Z)-(1-carboxylato-1-methylethoxyimino)acetamido]-4-pyridiniomethyl-2-azetidinone-1-sulfonate]
3.13 mg/L	3.13 mg/L	–	–	–	CON=C(C(=O)NC1C(=O)N(S(=O)(=O)O)C1CC(C)=O)c1csc(N)n1 (stereo not drawn) [Sodium [3S,4S]-cis-3-[(2-(2-aminothiazol-4-yl)-2-(Z)-methoxyimino]acetamido]-4-(2-oxopropyl)-2-azetidinone-1-sulfonate]
–	–	6.25 mg/L (≈ 12.6 µM)	0.1 mg/L (≈ 0.202 µM)	0.39 mg/L (≈ 0.789 µM)	CC(C)(O/N=C(\C(=O)N[C@@H]1C(=O)N(S(=O)(=O)O)[C@@H]1COC(N)=O)c1csc(N)n1)C(=O)O [Example 4']
0.2 mg/L (≈ 0.43 µM)	1.56 mg/L (≈ 3.35 µM)	–	–	–	COC[C@@H]1[C@H](NC(=O)/C(=N\OC(C)(C)C(=O)O)c2csc(N)n2)C(=O)N1S(=O)(=O)O (relative stereo) [cis-3-[2-(2-Amino-4-thiazolyl)-2-(Z)-(1-carboxy-1-methylethoxyimino)acetamido]-4-methoxymethyl-2-azetidinone-1-sulfonic acid]
